Reference: patent US7378274B2, “Regulatory nucleic acid for the ABC1 gene, molecules modifying its activity and therapeutic uses” (Aventis Pharma S.A., priority 2000, dated 2008)

Experiments:
[1] = system: human ABC1 promoter; assay: Luciferase reporter under control of the -200 bp human ABC1 promoter (wild type or E-box mutant), transfected RAW 264.7 cells; format: cell-based; conditions: 24 hours, 10 μM 9CRA, 2 μg/ml 22(R)-HOch
From the text: Plasmids containing mutant SP1, AP1, E-box, LXR and deleted E-box fragments were constructed by site-directed mutagenesis using the overlap PCR method and the PXP1 −995 to +120 bp construct (Previato et al., JBC, 1991, 266:18958-63) as template. The primers listed below were used to amplify −200 to +44 bp of the human ABC1 promoter. Upper-case letters represent wild-type sequence whereas lower-case letters represent mutant sequence.
S224-HindIII and 44-HindIII were the upstream and downstream primers used for overlap PCR. The Hind III sites are underlined. The resulting fragments which spanned −200 to +44 of the human ABC1 gene were ligated into the HindIII site of the PXP1 luciferase reporter plasmid (Nordeen et al., Biotechniques, 1988, 6:454-457). All constructs were confirmed by sequencing.
Murine macrophage RAW 264.7 cells and human embryonic kidney 293 cells (American Type Culture Collection, Rockville, Md.) were grown in Dulbecco's modified Eagle's medium (DMEM) with 10% fetal calf serum (FCS). Approximately 1.5×10^5 cells were plated in 12-well plates (Costar, Corning, N.Y.), grown to 50-70% confluency and cotransfected with 1.5 μg of the ABC1 promoter-luciferase plasmid and 0.5 μg of the β-galactosidase vector (pCMVβ;Clontech, Palo Alto, Calif.) by using the Superfectin Reagent Kit (Qiagen, Valencia, Calif.). […]

[2] = system: USF1 and USF2; assay: Western analysis of USF1 and USF2 in RAW cell nuclear extracts; format: cell-based; conditions: RAW cells stimulated with cholesterol or oxysterols
Protocol: RAW cell nuclear extracts (35 μg protein per lane) from cells stimulated with cholesterol or 22-R-hydroxycholesterol were loaded onto NuPage Bis-Tris 4-12% gradient gels (Invitrogen, Carlsbad, Calif.) and run according to manufacturer's specifications. Proteins were transferred to Immobilon-P PVDF membranes (Millipore Corp, Bedford, Mass.). Antibodies (2 mg/ml stock) were from Santa Cruz Biotechnology, Inc. (Santa Cruz, Calif.) and were used according to manufacturer's specifications. Anti-USF1 C20X (catalog number sc-229X) antibody was used at a dilution of 1/600 and anti-USF2 antibodies C20X (catalog number sc862X) and N18X (catalog number sc861X) were used at a dilution of 1/1000.

[3] = system: E-box in the human ABC1 gene promoter; assay: Gel mobility shift assay of E-box (EB) probe with RAW cell nuclear extracts; format: binding; conditions: nuclear extracts of stimulated versus unstimulated RAW cells
From the text: Three double-stranded human ABC1 promoter fragments (Fragment A spanning −171 to −71 bp; Fragment EB spanning −156 to −130 bp and Fragment EB spanning −156 to −130 bp) were end-labeled with […] using T4 polynucleotide kinase (Lofstrand, Gaithersburg Md.). Nuclear extracts were isolated from unstimulated RAW 264.7 cell and HepG2 cell as well as RAW 264.7 cells after stimulation with the same concentrations of cholesterol and 22(R)-Hch shown above (Paragon Bioservices Inc. Baltimore, Md.). One ng (10,000 cpm) of radiolabelled probe was added to 2.5 μg nuclear extract in 20 ul of a 20 mM TRIS gel shift buffer (pH 7.9) containing 60 mM KCl, 0.2 mM EDTA, 0.5 mM DTT, 0.25 mM PMS, 1.3 mM MgCl, 10% glycerol, 3% Ficoll and 3 μg of double-stranded poly (dldC) as described (Previato et al., J Biol Chem, 1991, 266:18958-18963) and incubated for 10 minutes on ice followed by 10 minutes at room temperature. The incubated mixture was loaded on a 6% polyacrylamide gel in 0.25×TBE buffer and electrophoresed at 100 V for 90 min followed by autoradiography. For competition assays, nuclear extracts were preincubated for 10 minutes on ice in a 20 μl reaction mixture in the presence or absence of a 100-200-fold excess of double-stranded DNA competitors for Sp1 (−173 to −155 bp), AP1 (−135 to −155 bp), LXR (−54 to −69 bp) and E-box (−158 to −136 bp) before addition of probe. […]

[4] = system: regulatory nucleic acid for the human ABC1 gene; assay: Luciferase reporter under control of the -995 to +120 regulatory nucleic acid for the human ABC1 gene, transfected Hepa1-6 cells; format: cell-based
From the text: The region of the regulatory acid for the human ABC1 gene which ranges from the nucleotide at position −-995 up to the nucleotide at position +120, with respect to the transcription start site, was amplified by the PCR technique, with the aid of the following pair of primers: • forward primer S995 (SEQ ID No. 12), of sequence 5′-TTGCCGTCGACTGTTTTGGGTAGTTT-3′; and • reverse primer +220R (SEQ ID No. 13), of sequence 5′-GCCCTGTCGACCGGCTCTGTTGGT-3′, • From human genomic DNA present in a BAC vector from a collection of human BAC vectors.
The DNA fragment amplified was digested with the restriction endonuclease Sal 1, and then inserted into the vector PXP1 described by Nordeen et al. (1988, BioTechniques, 6: 454-457), at the Sal 1 restriction site of this vector.
Cells of the Hepa1-6 line (ATCC, Rockville, Md., USA) were cultured in the medium E-MEM (Minimum Essential Medium with Earle's Salts), to which 10% (v/v) of fetal calf serum (BioWhittaker, Walkersville, Md.) was added.
Approximately 1.5×10^5 cells were distributed into each of the wells of a 12-well (2.5 cm) culture plate, and were cultured until approximately 50 to 70% confluence, and were then cotransformed with 1 μg of the plasmid Sal-Lucif and 0.5 μg of the control vector pBetagel (CloneTech Laboratories Inc., Palo Alto, Calif., USA) using the Superfectin Reagent Kit pack (QIAGEN Inc., Valencia, Calif., USA). Two hours after adding the DNA, the culture medium was removed, and replaced with complete AMEM (Minimum Essential Medium Eagle's Alpha Modification) medium. […]
Freshly thawed aliquot fractions were used to quantify the proteins, using the MicroBCA Kit pack (Pierce, Rockford, Ill., USA), as well as to quantify the luciferase and beta-galactosidase production, using, respectively, the Tropix Luciferase Assay Kit and Galacto-Light Plus Kit packs. […]

Row | SMILES | Effect on ABC1 gene transcription (luciferase reporter) [1] | Expression of USF immunoreactive bands (43 and 44 KDa) [2] | Gel shift banding patterns with EB probe [3] | Luciferase activity ([4]; Hepa1-6 cells, in the presence of 50 μg/ml cholesterol, cells recovered 16 hours after medium change) | Increase in the activity ([4]; in the presence versus absence of cholesterol) | Normalized activity ([4]; luciferase normalized to β-galactosidase, in the presence of 50 μg/ml cholesterol)
1 | CC1=C(/C=C/C(C)=C\C=C\C(C)=C\C(=O)O)C(C)(C)CCC1 [CRA, 9-cis-retinoic acid] | stimulatory effect | – | – | – | – | –
2 | CC(C)CCC[C@@H](C)[C@H]1CC[C@H]2[C@@H]3CC=C4C[C@@H](O)CC[C@]4(C)[C@H]3CC[C@]12C [cholesterol] | – | not altered | No differences | 500000 RLU | 1.82 | 13.25
3 | CC(C)CC[C@@H](O)[C@@H](C)[C@H]1CC[C@H]2[C@@H]3CC=C4C[C@@H](O)CC[C@]4(C)[C@H]3CC[C@]12C [oxysterols, 22-(R)-hydroxycholesterol] | stimulatory effect | not altered | No differences | – | – | –
